Laboratory results published in patent publication US20120172375A1, “COMPOUNDS AND METHODS OF PROMOTING OLIGODENDROCYTE PRECURSOR DIFFERENTIATION” (priority 2008, published 2012).

B1: CNTF: ciliary neurotrophic factor, neurotrophin used as positive control for cell differentiation in primary screening (protein, UniProt P26441 1-200, looked up)
Ciliary neurotrophic factor: MAFTEHSPLTPHRRDLCSRSIWLARKIRSDLTALTESYVKHQGLNKNINLDSADGMPVASTDQWSELTEAERLQENLQAYRTFHVLLARLLEDQQVHFTPTEGDFHQAIHTLLLQVAAFAYQIEELMILLEYKIPRNEADGMPINVGDGGLFEKKLWGLKVLQELSQWTVRSIHDLRFISSHQTGIPARGSHYIANNKKM

Tests used:
[1] = test system: oligodendrocyte progenitor cells; assay: Western blot for myelin proteins PLP/DM20 and CNPase in treated oligodendrocyte progenitor cells; format: cell-based, mouse; details: Table 3, 10 μM, 48 hrs
Experimental: (§1) Oligodendrocyte progenitors were generated from embryonic neural progenitors growing in cell aggregates known as neurospheres (Nphs). Nph were prepared from embryos at 14.5 days of gestation obtained from timed pregnant females of either wild type mice or the proteolipid protein-enhanced-green fluorescence protein (Plp-EGFP) transgenic mouse. In brief, after separation of meninges and cerebellum, cerebrum tissue was mechanically triturated with a 1 ml Gilson pipette until total tissue disaggregation was achieved, filtered through a 70 μm cell strainer (Fisher Scientific, Pittsburg, Pa.) and plated in 25 cm^2 plastic culture flasks (2 brains/flask). Nph proliferation media (NPM) was DMEM/F12, B27 neuronal supplement (Gibco, Baltimore, Md.) and 10 ng/ml EGF (Sigma, St. Louis, Mo.). After 48-72 hr, floating Nphs were passaged at a 1:3 ratio in the same medium every 3-4 days. To generate oligodendrocyte progenitors, single cells suspensions were obtained by chemical disgregation with the mouse NeuroCult dissociation kit (StemCell Technologies, Alberta, Canada). The single cell suspension was filtered through a 70 μm cell strainer and plated on 96-well poly-D-Lysine (PDL)-coated plates at a cell density of 1.5×10^4 cells/cm^2. Cells were maintained in NPM supplemented with 10 ng/ml PDGF/bFGF instead of EGF. Bipolar, oligodendrocyte progenitor cells were observed 24 hours after plating. At the Moment of treatment to induce oligodendrocyte progenitor differentiation, the media was changed to OPC differentiation media containing NPM with a 1:10 dilution of PDGF/FGF.
For myelin protein analyses, cells were grown on 100 mm culture plates and after exposure to small molecules or controls were washed twice with ice-cold PBS. RIPA lysis buffer was added to the plates and the cells were scraped, collected and disrupted with a homogenizer on ice. Cell homogenates were then centrifuged at 6,000×g, 10 min, 4° C. and supernatants separated in a fresh tube. After adding Laemli loading buffer, proteins were denaturized at 70° C. for 10 mm and loaded in gradient gels (4-20, Criterion, BioRad, Calif.). Electroforetically separated proteins were electro-transferred to nitrocellulose membranes in a semi-dry apparatus and unspecific bonds were blocked with IRdye blocking solution for at least 1 hr at RT. After washing twice with TBS-T, primary antibodies were added and incubated over night at 4° C. Membranes were incubated with secondary, IRdye-infrared conjugated antibodies for 1 hr at RT and visualized on the Odyssey scanner.
(§2) The primary screening to select positive compounds was performed at a standard concentration of 10 μM with cell morphology analysis 48 hrs after treatment. Dose response curves at 48 hrs treatment time were performed to determine the minimum concentration compounds A, A-7 and B needed to induce cell maturation. We assessed oligodendrocyte differentiation by cell morphology changes, green fluorescence in cells generated from or Plp-EGFP transgenic mouse, immunostaining for myelin proteins and western blot for expression of the oligodendrocyte markers PLP/DM20 and 2′,3′, cyclic nucleotide 3′ phosphohydrolase (CNPase). EC50 values were also calculated based on results of western blot for myelin proteins and subsequent band densitometry analysis. Additionally, we followed cell differentiation induced over long time exposure to compounds A and B (7 days, 0.1-10 μM).

[2] = test system: oligodendrocyte progenitor cells; assay: Immunocytochemistry for PLP/DM20 and MBP, count of differentiated cells; format: cell-based, mouse; details: Table 3, 10 μM, 48 hrs
Experimental: Immunodetection of oligodendrocyte and myelin markers was performed. In brief, Oligodendrocyte cells plated on PDL-coated dishes were initially fixed in 2% paraformaldehyde (PFA) for 10 min at room temperature (RT) and then 4% PFA for 15 min, washed three times with PBS and permeabilized with 0.1% Triton X100 for 10 min at RT. After blocking with 3% BSA in PBS for 60 min a RT, the cells were incubated with primary antibodies at the indicated concentrations overnight (ON) at 4° C. The cells were washed three times with cold PBS incubated with secondary antibodies for 45 min at RT, and washed again before mounting. Immunostaining of tissue sections prepared with a sliding microtome (30 μm) was performed. In brief, tris buffered saline (TBS) containing 100 nM Sodium fluoride (TBSS) was used the all dilutions and washes. For antigen retrieval, sections were washed 3 times in TBSS, incubated in 5% methanol and 3% H2O2 for 10 min, washed 2 times, and then incubated in 10% Triton X-100 for 20 min. Blocking of unspecific bonds was performed by incubating the tissue sections with 10% NGS for 1 hr. Primary antibodies were diluted in 3% BSA containing 0.02% Triton X-100 and sections were incubated overnight in this solution. The next day the sections were washed 3 times in TBSS, followed by 1 hr incubation in secondary antibodies (1:1000) at 4° C. After several washes, the sections were mounted using Vectashield (Vector Laboratories, Burlingame, Calif.). Visualization of immunostained cells and tissue was performed on a Leica DMR (Wetzlar, Germany) or a Leica SP5 confocal microscope.
as §2
Compound A-7-induced oligodendrocyte progenitor maturation was also analyzed in comparison to control cells in immunostaining experiments to detect the myelin proteins MBP and PLP. Positive cells for these markers showing processes formation and membranous structures were counted versus total cells and counterstained with the nuclear dye Dapi after 48 hrs (Tables 3 and 4) and 7 days treatment with 0.1, 1 or 10 μM compound A-7 (FIG. 2, B).

[3] = test system: oligodendrocyte progenitors; assay: Primary/secondary screening: oligodendrocyte progenitor morphology changes and Plp-EGFP fluorescence; format: cell-based, mouse
Experimental: as §1, with “At the Moment of treatment to induce oligodendrocyte progenitor differentiation, the media was changed to OPC differentiation media containing NPM with a 1:10 dilution of PDGF/FGF.” left out
The small molecule library consists of handcrafted drug-like organic molecules with molecular weight in a range of 250-550, dissolved in DMSO at concentration of 5 mg/ml or […]. Their structure and >95% purity have been validated by NMR. […] Oligodendrocyte progenitor differentiation was scored using as 4 scale values as follows: 1: bipolar, undifferentiated; 2: bipolar to tripolar, initiated differentiation; 3: multibranched, differentiated cells; 4: multibranched, differentiated cells showing membranous structures (FIG. 1).
Differentiation induced by selected compounds was further validated by fluorescence microscopy in cells generated from our Plp-EGFP transgenic mouse. Increased fluorescence in treated oligodendrocyte progenitor was indicative of cell maturation and was again scored following the same scale. […] These were analyzed for cell toxicity assays by MTT were yellow 3-(4,5-Dimethylthiazol-2-yl)-2,5-diphenyltetrazolium bromide, a tetrazole (MTT) is reduced to purple formazan in the mitochondria of living cells, showing a solution color change measurable by OD620-590 (Data not shown). Further oligodendrocyte progenitor maturation in response to selected compounds was assessed by induction of myelin protein expression as determined by immunocytochemistry and western blot. […]

[4] = test system: Akt; assay: Akt activity in cell extracts of oligodendrocyte precursors (phosphorylation of Akt substrate GSKα/β); format: cell-based; details: 10 μM, 48 h
Text: Oligodendrocyte precursor differentiation requires the activation of a complex, highly controlled machinery that signals cells to stop migrating/proliferating and start extending processes and producing myelin components. A number of inducers and intracellular mediators of this process have been identified in vitro and in viva. […] Therefore, we studied whether our selected small molecules induced Akt signaling in oligodendrocyte precursors. We analyzed Akt activity in cell extracts of oligodendrocyte precursors treated with selected compounds (10 μM, 48 h), as determined by phosphorylation of Akt substrate GSKα/β.

Molecule	PLP/DM20 Expression (WB, % of Control) [1]	Differentiated Cells (IC, % of Control) [2]	induction of oligodendrocyte precursor maturation [3]	further results
CCS(=O)(=O)N1CCN(C(=O)COc2ccc(C)cc2)CC1	160.7 ± 8.2 n = 2 % of Control	207.5 ± 38.2 n = 3; p <0.05 % of Control	–	–
CC(=O)NC(=Cc1ccc(Cl)cc1)C(=O)N1CCOCC1 [D, N-[2-(4-chlorophenyl)-1-(4-morpholinylcarbonyl)vinyl]acetamide]	–	–	showed induction of oligodendrocyte precursor maturation	–
CCS(=O)(=O)N1CCN(C(=O)COc2ccccc2)CC1	148 ± 10.6 n = 2 % of Control	195 ± 10.9 n = 3; p <0.05 % of Control	–	–
CCCS(=O)(=O)N1CCN(C(=O)COc2ccc(OC)cc2)CC1	143.0 ± 6.9 n = 2 % of Control	224.3 ± 66.3 n = 3; p <0.05 % of Control	–	–
Br.COc1ccc(C2=CSC3=NCCN23)cc1F [F, 3-(3-fluoro-4-methoxyphenyl)-5,6-dihydroimidazo[2,1-b][1,3]thiazole hydrobromide]	–	–	showed induction of oligodendrocyte precursor maturation	Akt phosphorylation [4]: clearly detected
B1	–	–	–	oligodendrocyte progenitor morphological changes indicative of cell maturation ([3]; positive control, 10 ng/ml, 48 hrs): marked oligodendrocyte progenitor morphological changes
